Tests used:
[1] = molecular target: T1, α4β1 (Homo sapiens, UniProt P05556+P13612); test: Jurkat-CS-1 assay; assay type: cell-based; details: Jurkat cell adhesion to immobilized CS-1 derived peptide
T1 construct: 100 µl of Jurkat cells (2.5 x 10^6 cells/ml) in DMEM plus BSA; host or cells: Jurkat T-cell line

[2] = molecular target: T2, α4β1 integrin (Homo sapiens, UniProt P05556+P13612); test: Jurkat-Endothelial Cell Adhesion Assay (Jurkat EC); assay type: cell-based; details: Jurkat cell adhesion to IL-1 stimulated endothelial cell monolayers
T2 construct: a T-cell line, Jurkat, known to express the α4β1 integrin; host or cells: Jurkat T-cell line
T2 sequence (P13612 34-1032): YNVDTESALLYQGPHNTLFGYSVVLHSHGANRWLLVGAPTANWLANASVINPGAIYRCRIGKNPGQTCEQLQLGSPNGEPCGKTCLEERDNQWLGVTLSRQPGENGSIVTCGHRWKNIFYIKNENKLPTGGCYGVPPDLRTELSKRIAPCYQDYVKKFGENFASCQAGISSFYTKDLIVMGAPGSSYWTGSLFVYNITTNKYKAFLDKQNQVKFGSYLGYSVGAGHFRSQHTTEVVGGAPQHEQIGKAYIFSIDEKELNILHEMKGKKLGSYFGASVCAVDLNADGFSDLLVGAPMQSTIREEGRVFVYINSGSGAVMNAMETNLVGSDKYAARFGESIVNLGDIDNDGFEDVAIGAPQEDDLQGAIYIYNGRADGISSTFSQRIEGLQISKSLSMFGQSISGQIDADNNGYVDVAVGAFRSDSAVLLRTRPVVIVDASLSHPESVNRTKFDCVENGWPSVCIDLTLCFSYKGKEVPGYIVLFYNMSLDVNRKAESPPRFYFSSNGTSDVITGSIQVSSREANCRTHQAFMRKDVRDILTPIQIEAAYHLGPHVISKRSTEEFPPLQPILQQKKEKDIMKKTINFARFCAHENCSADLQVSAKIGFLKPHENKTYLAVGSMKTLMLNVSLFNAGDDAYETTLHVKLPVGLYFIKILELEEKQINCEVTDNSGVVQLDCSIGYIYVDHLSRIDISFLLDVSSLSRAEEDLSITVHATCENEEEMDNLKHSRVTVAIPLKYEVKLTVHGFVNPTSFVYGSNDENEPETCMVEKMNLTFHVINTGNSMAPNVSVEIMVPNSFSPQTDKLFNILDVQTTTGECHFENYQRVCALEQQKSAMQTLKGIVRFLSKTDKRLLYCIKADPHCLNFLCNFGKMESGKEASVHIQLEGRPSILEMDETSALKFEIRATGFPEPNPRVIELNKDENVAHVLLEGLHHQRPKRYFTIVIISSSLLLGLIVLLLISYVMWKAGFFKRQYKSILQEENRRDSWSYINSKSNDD
T2 sequence (P05556 21-798): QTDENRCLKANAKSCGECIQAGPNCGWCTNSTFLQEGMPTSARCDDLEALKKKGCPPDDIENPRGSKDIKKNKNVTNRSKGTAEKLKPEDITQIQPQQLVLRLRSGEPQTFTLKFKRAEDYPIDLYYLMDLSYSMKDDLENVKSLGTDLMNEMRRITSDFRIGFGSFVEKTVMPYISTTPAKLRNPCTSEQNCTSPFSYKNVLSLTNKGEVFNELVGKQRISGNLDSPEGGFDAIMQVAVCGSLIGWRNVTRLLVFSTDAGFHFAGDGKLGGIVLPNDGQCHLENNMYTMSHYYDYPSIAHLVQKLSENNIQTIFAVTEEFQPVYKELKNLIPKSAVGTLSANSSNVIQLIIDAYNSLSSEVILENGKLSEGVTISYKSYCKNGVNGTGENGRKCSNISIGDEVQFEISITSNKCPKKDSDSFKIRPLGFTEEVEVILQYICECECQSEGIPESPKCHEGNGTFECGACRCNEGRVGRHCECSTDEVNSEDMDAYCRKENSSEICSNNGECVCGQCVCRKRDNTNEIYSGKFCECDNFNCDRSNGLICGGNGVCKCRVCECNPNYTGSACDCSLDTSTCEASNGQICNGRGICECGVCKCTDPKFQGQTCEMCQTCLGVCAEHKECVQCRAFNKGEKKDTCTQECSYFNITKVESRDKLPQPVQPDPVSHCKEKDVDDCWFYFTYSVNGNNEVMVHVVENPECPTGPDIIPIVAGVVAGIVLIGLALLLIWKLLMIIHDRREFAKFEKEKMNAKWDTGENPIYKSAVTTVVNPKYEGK
In short: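 BCECF-loaded Jurkat T cells (5 x 10^5) mixed with compound, generally 100, 20, 5 and 1.25 µM, in DMEM-HSA, added to HUVEC monolayers prestimulated 4 h with 0.1 ng/ml IL-1. After washing, adherent-cell fluorescence read; % adhesion relative to no-compound control set at 100%.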

T1 sequence (P13612 34-1032): as the sequence (P13612 34-1032) above
T1 sequence (P05556 21-798): as the sequence (P05556 21-798) above

IC50 [1] [nM] | IC50 [2] [nM] | Structure (SMILES)
80 to 500 | 800 to 5000 | O=C(Nc1ccc(C[C@H](NC(=O)N2CCCC(C(=O)O)C2)C(=O)O)cc1)c1c(Cl)cccc1Cl (stereo partly drawn) [Example 115, 1-[[((1S)-1-carboxy-2-[4-[(2,6-dichlorobenzoyl)amino]phenyl]ethyl)amino]carbonyl]-3-piperidinecarboxylic acid]
500 to 1000 | 800 to 5000 | CC(=O)[C@H]1C[C@H](C(=O)N[C@@H](Cc2ccc(NC(=O)c3cccnc3Cl)cc2)C(=O)O)C1(C)C [Example 104, (1S-trans)-N-[(3-Acetyl-2,2-dimethylcyclobutyl)carbonyl]-4-[[(2-chloro-3-pyridinyl)carbonyl]amino]-L-phenylalanine]
80 to 500 | ≤ 800 | CC1(C)[C@@H](C(=O)O)C[C@H]1C(=O)N[C@@H](Cc1ccc(NC(=O)c2c(Cl)cccc2Cl)cc1)C(=O)O [Example 103, (1R-cis)-N-[(3-Carboxy-2,2-dimethylcyclobutyl)carbonyl]-4-[(2,6-dichlorobenzoyl)amino]-L-phenylalanine]
≤ 80 | ≤ 800 | CC1=C(C(=O)N[C@@H](Cc2ccc(OCc3c(Cl)cccc3Cl)cc2)C(=O)O)C(C)(C)CC/C1=C\C(=O)O [Example 119, N-[[(3E)-3-Carboxymethylene-2,6,6-trimethyl-1-cyclohexen-1-yl]carbonyl]-4-O-(2,6-dichlorophenylmethyl)-L-tyrosine]

The next lines start with the molecule.

Structure (SMILES) | IC50 [1] [nM] | IC50 [2] [nM]
O=C(O)CC1(CC(=O)NC2(C(=O)N[C@@H](Cc3ccc(NC(=O)c4c(Cl)cccc4Cl)cc3)C(=O)O)CCCCC2)CCCC1 [Example 47] | 80 to 500 | 5000 to 10000
O=C(NC1CCCCC1C(=O)NC(Cc1ccc(NC(=O)c2c(Cl)cccc2Cl)cc1)C(=O)O)c1cc(O)c2ccccc2n1 (centres unmarked) [Example 82] | 80 to 500 | ≤ 800
CC(=O)CCC(=O)NC1(C(=O)N[C@@H](Cc2ccc(NC(=O)c3c(Cl)cccc3Cl)cc2)C(=O)O)CCCCC1 [Example 53] | ≤ 80 | ≤ 800
O=C(O)c1cncc(C(=O)Nc2cccc(C(=O)N[C@@H](Cc3ccc(NC(=O)c4c(Cl)cccc4Cl)cc3)C(=O)O)c2)c1 [Example 44] | 80 to 500 | 5000 to 10000
O=C(Nc1ccc(C[C@H](NC(=O)C2(NC(=O)C3CCOC3)CC3CCC2C3)C(=O)O)cc1)c1c(Cl)cccc1Cl (some centres unmarked) [Example 78] | 80 to 500 | ≤ 800
O=C(NC1(C(=O)N[C@@H](Cc2ccc(NC(=O)c3c(Cl)cccc3Cl)cc2)C(=O)O)CCCCC1)c1cc(C(=O)O)[nH]n1 [Example 65] | 80 to 500 | 800 to 5000

Source: patent EP1144365B1 (TANABE SEIYAKU CO., LTD., priority 1998, dated 2000)
